Reference: patent US10085988B1, “Aglaroxin C and derivatives as HCV entry inhibitors” (SRI International, priority 2015, dated 2018)

Tests used:
[1] = molecular target: PHB-CRaf interaction (Homo sapiens (Human), UniProt P35232+Q99623); assay: Co-IP of Flag-CRaf and V5-tagged PHB1 & 2 in 293T cells; format: cell-based; details: 20 nM
Method: (§1) (A) PHHs seeded in a 48-well plate were treated with Roc-A or DMSO and then infected by HCVpp. EC50and CC50 (50% cytotoxicity dose) were calculated based on the fitted Sigmoid curves. (B) Huh7.5.1 cells were treated with Roc-A (20 nM) or DMSO for 1, 2, and 3 days. Cellular PHB1, PHB2, CRaf, and Ras were detected by Western blotting. Numbers shown below Western blot gel images indicate the relative protein levels quantified by Odyssey imaging system (LI-COR Biosciences). (C-D) Flag-CRaf (F-CRaf) and V5-tagged PHB1 & 2 were co-transfected into 293T cells and then left untreated or treated with Roc-A (20 nM) before immunoprecipitation with anti-Flag antibody. The pulled-down PHB1 & 2 as well as CRaf were detected by immunoblotting. (E) Different inhibitory profiles of the (+)- and(−)-Roc-A enantiomers on HCVcc infection. (F) A CMV-luciferase reporter construct was transfected into Huh7.5.1 cells. 24 h post-transfection each compound was added to the cells for 3 h at 2 μM. After removal of the compound, the cells were further incubated for 24 h followed by luciferase assay. […] HCVcc-Luc was added to Huh7.5.1 cells at 37° C. and incubated for 3 h. At the indicated time points, 2μM of each compound or DMSO was added into the media and incubated for 3 h prior to removal. Infected cells were incubated at 37° C. for an additional 48 h prior to luciferase assay (mean of n=3; error bars, s.d.).

[2] = system: CHIKVpp; assay: CHIKVpp infection of Huh7.5.1 cells; format: cell-based, chikungunya virus; details: low nanomolar concentrations
Method: FIGS. 4A and 4B illustrate that PHBs are required for CHIKVpp entry. (A) Huh7.5.1 were transfected with indicated siRNA, followed by infection of CHIKVpp (mean±SD, *p<0.05). (B) Huh 7.5.1 cells were treated with DMSO or Roc-A (10 nM) and then infected by CHIKVpp for luciferase assay (mean±SD, *p<0.05).

[3] = system: JFH-1 genotype 2a infectious virus (HCVcc); assay: HCV (HCVcc) infection / viral entry inhibition on Huh7.5.1 cells; format: cell-based, Hepatitis C virus; details: for EC50: Hepatitis C virus; for inhibition on HCV entry (enantiomer comparison): HCVcc infection
Method: as §1
(§2) In a preferred embodiment, Y is C, R1, R3, and R4 from the structure 5 is —OCH3, and R2 and R5 is hydrogen, which is aglaroxin C. […] The term EC50 refers to the concentration of a drug or antibody which induces a response halfway between the baseline and maximum after a specified exposure time. It is commonly used as a measure of drug's potency. The 50% cytotoxic concentration (CC50) is defined as the quantity of a toxicant generating 50% of cell viability, compared to the control. The values of the percentages of cell viability were plotted against toxicant concentrations, and CC50 is determined. (TI) is a comparison of the amount of a therapeutic agent that causes the therapeutic effect to the amount that causes toxicity.

[4] = molecular target: PHB1, PHB2, CRaf, and Ras (Homo sapiens (Human), UniProt P35232+Q99623); assay: Western blot of total cellular protein levels in Huh7.5.1 cells; format: cell-based; details: 20 nM, 1, 2, and 3 days
Method: as §1

[5] = human liver microsomal stability assay
[6] = system: HCVpp; assay: HCVpp infection/entry, primary human hepatocytes (PHHs), with cell viability; format: cell-based, Hepatitis C virus
[7] = molecular target: PHB1 and PHB2 (Homo sapiens (Human), UniProt P35232+Q99623); assay: Cell surface biotinylation assay; format: cell-based; details: 20 nM, Huh7.5.1 cells
[8] = system: DENV2; assay: DENV2 infection of Huh7.5.1 cells; format: cell-based, dengue virus
Method: Huh7.5.1 cells were treated by DMSO, Roc-A (5nM) or Roc-A (10nM) for 10 hours prior to infection by DENV2 (MOI 0.1 and 1). 36 hours post-infection, cells were fixed in methanol and immunostained for DENV prM/E (red).

[9] = system: HCV RNA replication or protein translation; assay: HCV RNA replication or protein translation; format: cell-based, Hepatitis C virus; details: 20 nM
[10] = system: protein translation (luciferase reporter gene); assay: Translation inhibition, CMV-luciferase reporter transfected into Huh7.5.1 cells; format: cell-based, human; details: compound added for 3 h, luciferase reporter in Huh7.5.1 cells
Method: as §1

[11] = Cytotoxicity (CC50) on Huh7.5.1 cells; format: cell-based; details: human; for CC50 at 3 h: compounds incubated with cells for a total of 3 h on Huh7.5.1 cells; for CC50 at 48 h: compounds incubated with cells for a total of 48 h on Huh7.5.1 cells
From the text: as §2

[12] = system: HCVcc-Luc; assay: Time-of-addition experiment, HCVcc-Luc on Huh7.5.1 cells; format: cell-based, Hepatitis C virus; details: 2 μM
Method: as §1

[13] = 3 h incubation on Huh7.5.1 cells
[14] = 48 h incubation on Huh7.5.1 cells

Sequence of PHB-CRaf interaction (P35232 whole entry): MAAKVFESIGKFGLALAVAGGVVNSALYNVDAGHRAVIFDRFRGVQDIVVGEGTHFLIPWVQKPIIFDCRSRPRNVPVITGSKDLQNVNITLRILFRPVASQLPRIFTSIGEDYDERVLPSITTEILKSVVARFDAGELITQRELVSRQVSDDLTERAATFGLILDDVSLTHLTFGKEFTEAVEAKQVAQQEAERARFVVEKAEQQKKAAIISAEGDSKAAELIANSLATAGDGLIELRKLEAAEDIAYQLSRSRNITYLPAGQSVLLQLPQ
Sequence of PHB-CRaf interaction (Q99623 whole entry): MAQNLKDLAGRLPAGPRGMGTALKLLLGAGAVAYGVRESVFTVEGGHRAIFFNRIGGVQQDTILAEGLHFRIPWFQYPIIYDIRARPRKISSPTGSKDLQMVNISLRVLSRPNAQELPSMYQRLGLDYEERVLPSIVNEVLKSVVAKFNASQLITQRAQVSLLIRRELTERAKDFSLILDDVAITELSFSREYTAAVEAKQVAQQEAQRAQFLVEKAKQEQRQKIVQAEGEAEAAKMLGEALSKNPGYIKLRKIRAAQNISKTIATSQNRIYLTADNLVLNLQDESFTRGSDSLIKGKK

Which “PHB-CRaf interaction in co-IP experiment” value [1] does the source give for `COc1ccc([C@@]23Oc4cc(OC)cc(OC)c4[C@]2(O)[C@H](O)[C@H](C(=O)N(C)C)[C@H]3c2ccccc2)cc1` [Roc-A, rocaglamide A] here?
Its value is “disrupted”.

What about the CHIKVpp infection [2] of the same compound?
The CHIKVpp infection was “significantly reduced”.

What about the HCVcc infection ([3]; low nanomolar concentrations) of the same compound?
The HCVcc infection was “significantly reduced”.

And the “PHB1, 2, Ras, and CRaf at the total protein level” value [4]?
Its value is “decreased”.

And the half-life [5]?
Its half-life is 37 min.

And the HCVpp infection ([6]; low nanomolar concentrations)?
Its HCVpp infection is “significantly reduced”.

What about the HCVpp entry ([6]; pretreatment of PHHs at non-cytotoxic concentrations) of the same compound?
Its HCVpp entry is “suppressed”.

And the “cell surface expression of PHB1 and 2” value [7]?
The value was “decreased”.

What about the DENV2 infection ([8]; 5 nM or 10 nM for 10 hours prior to infection, MOI 0.1 and 1, Huh7.5.1 cells) of the same compound?
The DENV2 infection was “reduced”.

And the dengue virus infection ([8]; low nanomolar concentrations)?
Its dengue virus infection is “significantly reduced”.

What about the “inhibition of HCV RNA replication or protein translation” value [9] of the same compound?
The value was “did not inhibit”.

What does the source list for `COc1ccc([C@]23Oc4cc(OC)cc(OC)c4[C@@]2(O)[C@@H](O)[C@@H](C(=O)N(C)C)[C@@H]3c2ccccc2)cc1` [(+) Roc-A]?
EC50 ([3]; Huh-7.5.1, 3 h): > 200000 nM; Translation inhibition at 2 μM [10]: No; CC50 at 3 h [11]: 300000 nM

Which “TI (CC50/EC50)” value [3, 13] does the source give for `COc1ccc([C@]23Oc4cc(OC)cc(OC)c4[C@@]2(O)c2nc4n(c(=O)c2[C@@H]3c2ccccc2)CCC4)cc1` [(+)-aglaroxin C] here?
Its value is 5^1.

And the EC50 ([3]; Huh-7.5.1, 3 h)?
Its EC50 is 20000 nM.

And the “Translation inhibition at 2 μM” value [10]?
Its value is “No”.

What about the CC50 at 3 h [11] of the same compound?
The CC50 at 3 h was 100000 nM.

Which “TI (CC50/EC50)” value [3, 13] does the source give for `COc1ccc([C@@]23Oc4cc(OC)cc(OC)c4[C@]2(O)c2nc4n(c(=O)c2[C@H]3c2ccccc2)CCC4)cc1` [(−)-aglaroxin C] here?
The value was 60^1.

What about the “inhibition on HCV entry (enantiomer comparison)” value [3] of the same compound?
Its value is “active enantiomer”.

What about the EC50 ([3]; Huh-7.5.1, 3 h) of the same compound?
Its EC50 is 200 nM.

And the “Translation inhibition at 2 μM” value [10]?
Its value is “No”.

And the CC50 at 3 h [11]?
The CC50 at 3 h was 12000 nM.

Which results are given for `COc1ccc([C@@]23Oc4cc(OC)cc(OC)c4[C@]2(O)c2nc4n(c(=O)c2[C@H]3c2ccccc2)CCC4)cc1` (racemic) [(±) aglaroxin C (C10), aglaroxin C]?
TI (CC50/EC50) [3, 13]: 100; TI (CC50/EC50) [3, 14]: 500; EC50 ([3]; Huh-7.5.1, 3 h): 100 nM; EC50 ([3]; Huh-7.5.1, 48 h): 0.04 nM; half-maximum effective concentrations (EC50) ([3]; JFH-1 genotype 2a infectious virus in cell culture): picomolar; Translation inhibition at 2 μM [10]: No; Translation inhibition at 2 μM ([10]; listed as chiral, racemic aglaroxin C): did not inhibit; anti-HCV activity ([12]; added about 3 h after the infection was initiated): lost its activity; anti-HCV activity ([12]; added together with the virus): inhibited HCV infection when added together with the virus; anti-HCV activity ([12]; added together with the virus, listed as chiral, racemic aglaroxin C): maximal anti-HCV activity; CC50 at 3 h [11]: 10000 nM; CC50 at 48 h [11]: 20 nM

Which results are given for `COc1ccc([C@@]23Oc4cc(OC)cc(OC)c4[C@]2(O)[C@H](O)[C@H](C(=O)N(C)C)[C@H]3c2ccccc2)cc1` [(−) Roc-A]?
TI (CC50/EC50) [3, 13]: 50; TI (CC50/EC50) [3, 14]: 75; inhibition on HCV entry (enantiomer comparison) [3]: stronger inhibition on HCV entry than the (+) enantiomer; EC50 ([3]; Huh-7.5.1, 3 h): 1000 nM; EC50 ([3]; Huh-7.5.1, 48 h): 4 nM; Translation inhibition at 2 μM [10]: No; CC50 at 3 h [11]: 50000 nM; CC50 at 48 h [11]: 300 nM
